In article PMC5447021, “TNF Lectin-Like Domain Restores Epithelial Sodium Channel Function in Frameshift Mutants Associated with Pseudohypoaldosteronism Type 1B” (Frontiers in Immunology, 2017):
Entries after “also recorded” stand apart in the source; their conditions may differ.

Tests used:
αF435fs = test: Membrane abundance of αF435fs; assay type: cell-based, human
Experimental: Cell surface biotinylation was performed as previously described ([26]). In brief, A549 cells or transiently transfected HEK-293 cells were grown in 10 cm dishes in 37°C, 5% CO2 incubator in DMEM medium supplemented with 5% FBS. […] Medium was aspirated, and then cells were washed twice with 10 ml ice-cold phosphate-buffered saline (PBS), covered with 2.5 mg EZ-Link Sulfo-NHS-SS-Biotin (Thermo Scientific, Rockford, USA), dissolved in 10 ml ice-cold PBS, and incubated at 4°C with gentle agitation for 30 min. Fifty milliliters of quenching solution were added to cells; then cells were scraped in solution and transferred to fresh 50 ml tube. Cell suspension was centrifuged at 500 × g for 3 min. Supernatant was discarded, and 5 ml of Tris-buffered saline (TBS) was added to the cell pellet. The cell pellet was resuspended and centrifuged at 500 × g for 3 min. Supernatant was discarded and cell pellet was resuspended in lysis buffer containing protease inhibitor cocktail (10 µM pepstatin A, 10 µM phenylmethylsulfonyl fluoride, and 10 µM leupeptin) and transferred to fresh 1.5 ml centrifuge tube. Cell pellet was then homogenized on ice by ultrasonication using 1 s bursts and incubated on ice for at least 30 min. Intact cells and nuclei were pelleted by centrifugation at 10,000 × g for 2 min under cooling conditions. Pellet was then discarded and supernatant was transferred to fresh tube, incubated overnight with 0.5 ml NeutrAvidin Agarose under gentle rotation at 4°C and centrifuged at 500 × g for 5 min under cooling conditions. Supernatant was then discarded and the pellet washed twice with 200 µl lysis buffer. The biotinylated proteins were eluted with 100 µl sodium dodecyl sulfate (SDS) sample buffer (62.5 mM Tris, pH 6.8, 1% SDS, 10% glycerine, 50 mM dithiothreitol) containing 10 µM E64 at 65°C for 10 min. Sample was then centrifuged at 500 × g for 2 min. Pellet was discarded and supernatant subjected to protein electrophoresis and immunoblotting. […] Exposed films were scanned and quantified using ImageJ (NIH, MD, USA). […]

[1] = system: pathological conditions involving ENaC; settings: cited from earlier work
α-ENaC (WT αβγ-ENaC) [2] = test: Membrane abundance of WT α-ENaC (cell surface biotinylation, Western blot); assay type: cell-based, human; settings: HEK-293, 200 nM solnatide, relative to WT control (=1), p < 0.001 vs control
Experimental: (§1) Cell surface biotinylation was performed as previously described ([26]). In brief, A549 cells or transiently transfected HEK-293 cells were grown in 10 cm dishes in 37°C, 5% CO2 incubator in DMEM medium supplemented with 5% FBS. […] Medium was aspirated, and then cells were washed twice with 10 ml ice-cold phosphate-buffered saline (PBS), covered with 2.5 mg EZ-Link Sulfo-NHS-SS-Biotin (Thermo Scientific, Rockford, USA), dissolved in 10 ml ice-cold PBS, and incubated at 4°C with gentle agitation for 30 min. Fifty milliliters of quenching solution were added to cells; then cells were scraped in solution and transferred to fresh 50 ml tube. Cell suspension was centrifuged at 500 × g for 3 min. Supernatant was discarded, and 5 ml of Tris-buffered saline (TBS) was added to the cell pellet. The cell pellet was resuspended and centrifuged at 500 × g for 3 min. Supernatant was discarded and cell pellet was resuspended in lysis buffer containing protease inhibitor cocktail (10 µM pepstatin A, 10 µM phenylmethylsulfonyl fluoride, and 10 µM leupeptin) and transferred to fresh 1.5 ml centrifuge tube. Cell pellet was then homogenized on ice by ultrasonication using 1 s bursts and incubated on ice for at least 30 min. Intact cells and nuclei were pelleted by centrifugation at 10,000 × g for 2 min under cooling conditions. […] Exposed films were scanned and quantified using ImageJ (NIH, MD, USA).

α-ENaC (WT αβγ-ENaC) [3] = settings: HEK-293, 5 and 10 min; returns after 1 h; cited from earlier work
ENaC PHA1B point mutants = settings: PHA1B point mutants with WT subunits; cited from earlier work
Text: PHA1B is a very rare inherited disease caused by mutations in the genes encoding the α (SCNN1A), β (SCNN1B), or γ (SCNN1G), subunit of ENaC, resulting in defective transepithelial sodium transport ([28]). […] Loss-of-function mutations in ENaC genes translate into the salt-wasting genetic disease PHA1B ([33], [41]). […] Remarkably, amiloride-sensitive currents were restored ...

αY447fs = test: Membrane abundance of αY447fs; assay type: cell-based, human; settings: 200 nM, relative to WT control (=1), own control 1.27 ± 0.10, p < 0.001 vs control
Experimental: as §1, with “USA). […]” for “USA).”

[4] = system: WT or mutant frameshift α-ENaC; test: Membrane abundance of α-ENaC, WT or mutant frameshift (overall); assay type: cell-based, human; settings: HEK-293, WT or mutant frameshift α-ENaC
Experimental: as §1, with “USA). […]” for “USA).”

C[C@@H]1NC(=O)CNC(=O)[C@H](CCC(=O)O)NC(=O)[C@@H]2CCCN2C(=O)[C@H]([C@@H](C)O)NC(=O)[C@H](CCC(=O)O)NC(=O)[C@H](CCCNC(=N)N)NC(=O)[C@H](CCC(N)=O)NC(=O)CNC(=O)[C@@H](N)CSSC[C@@H](C(=O)O)NC(=O)[C@H](Cc2ccc(O)cc2)NC(=O)[C@H](Cc2c[nH]c3ccccc23)NC(=O)[C@@H]2CCCN2C(=O)[C@H](CCCCN)NC(=O)[C@H](C)NC(=O)[C@H](CCC(=O)O)NC1=O [solnatide, L-cysteine, L-cysteinylglycyl-L-glutaminyl-L-arginyl-L-α-glutamyl-L-threonyl-L-prolyl-L-α-glutamylglycyl-L-alanyl-L-α-glutamyl-L-alanyl-L-lysyl-L-prolyl-L-tryptophyl-L-tyrosyl-, cyclic (1→17)-disulfide]
Membrane abundance, solnatide 5 min (αF435fs; 200 nM, 5 min, relative to WT control (=1), own control 2.37 ± 0.15, p < 0.001 vs control): 3.71 ± 0.20
Membrane abundance, solnatide 10 min (αF435fs; 200 nM, 10 min, relative to WT control (=1), own control 2.37 ± 0.15, p < 0.01 vs control): 2.82 ± 0.17
Membrane abundance after solnatide (αF435fs; HEK-293): the membrane abundance increasing even further following exposure to solnatide
Efficacy in phase II clinical trials [1]: already proven in pathological conditions involving ENaC in phase II clinical trials
Membrane abundance, solnatide 5 min (α-ENaC (WT αβγ-ENaC) [2]; 5 min, normalized to β-actin): 1.48 ± 0.12
Membrane abundance, solnatide 10 min (α-ENaC (WT αβγ-ENaC) [2]; 10 min): 1.40 ± 0.09
Membrane abundance, solnatide (α-ENaC (WT αβγ-ENaC) [3]): significant statistically
Restoration of amiloride-sensitive currents (ENaC PHA1B point mutants): restored to WT control levels; also recorded: restoring current levels in these mutant ENaC-expressing cells to WT levels or even higher
Membrane abundance, solnatide 5 min (αY447fs; 5 min): 1.57 ± 0.13
Membrane abundance, solnatide 10 min (αY447fs; 10 min): 1.89 ± 0.16
Membrane abundance of α-ENaC [4]: transient and significant increase in membrane abundance of α-ENaC
